Data published in patent US20220144853A1, “IMIDAZOLINE DERIVATIVES AS CXCR4 MODULATORS” (Université de Paris, priority 2019, published 2022).
Counter-ions that a name gives are not always drawn.

What follows are compounds tested on IFN production by activated PBMCs (assay: IFN production by R848-activated PBMCs from healthy donors, twINNE reporter cell line). Details: Homo sapiens, PBMC, means of two results over 2 healthy donors, R848 5 μg/mL, IT1t: mean over all experiments, read-out: IC50 of anti-inflammatory activity (IFN production).
Assay type: cell-based, human
Method: 2) The blood from healthy donors was also obtained from “Etablissement Français du Sang” (convention #19/EFS/029), Paris, France.
In vitro experiments were performed using human peripheral blood mononuclear cells (PBMCs) isolated by density centrifugation from peripheral blood leukocyte separation medium, lymphoprep (Stemcell Technologies).
PBMCs were cultured in RPMI 1640 (Sigma-Aldrich, MO, USA) containing 10% heat-inactivated fetal bovine serum (Sigma-Aldrich, MO, USA) at 37° C./5% CO2.
2) The PBMCs used herein were prepared as described in part A “immune cells preparation”, section 2) above. PBMCs were seeded at 4.10^6/mL. […] Cells were then stimulated with the TLR7/8 agonist resiquimod—R848 (Sigma-Aldrich, MO, USA) at 5 μg/mL.
2) To quantify the secretion of functional IFN, a biological assay based on a stable cell line where luciferase reporter gene is controlled by five Interferon-Stimulated Response Elements (twINNE cell line) was used. It is important to note that the twINNE cell line is the same as the above mentioned STING-37 cell line but with constitutively expressed nanoluciferase. First, supernatants of R848-stimulated PBMCs (see part B, section 2) above) were harvested after 24 h of stimulation and frozen at −20° C. for storage. Then, supernatants were dispensed in culture wells of a 96-well plate containing 35.103 twINNE cells per well in Dulbecco's Modified Eagle's Medium supplemented with 10% Foetal Bovine Serum, 100 U/mL Penicillin and 100 μg/mL Streptomycin (1% Pen-Strep) and 1 mM glutamine (Sigma-Aldrich, MO, USA) at 37° C./5% […]. After 24 h of culture, luciferase activity was determined by adding 60 μL of Bright-Go reagents (Promega, Wisconsin, USA) to culture wells and measuring bioluminescence with EnSpire Multimode Plate Reader (PerkinElmer, Massachusetts, USA). When stated, for IC50 calculation, dose-response curves fitted using the nonlin fit (variable slope) analysis in GraphPad Prism software (GraphPad Software, California, USA).

Row | SMILES | IC50 [µM]
1 | CCCCC1CN=C(SCC2=CSC3=NC(Cc4ccccc4)CN23)N1 (centres unmarked) [Example 51, 6-benzyl-3-(((5-butyl-4,5-dihydro-1H-imidazol-2-yl)thio)methyl)-5,6-dihydroinidazo[2,1-b]thiazole dihydrochloride] | ≤ 10
2 | CC(C)[C@@H]1N=C(SCC2=CSC3=NC(C)(C)CN23)N[C@H]1C(C)C [Example 58, 3-((((4S,5S)-4,5-diisopropyl-4,5-dihydro-1H-imidazol-2-yl)thio)methyl)-6,6-dimethyl-5,6-dihydroimidazo[2,1-b]thiazole dihydrochloride] | ≥ 31
3 | CC1(C)CN2C(CSC3=NCCCCN3)=CSC2=N1 [Example 12, 6,6-dimethyl-3-(((4,5,6,7-tetrahydro-1H-1,3-diazepin-2-yl)thio)methyl)-5,6-dihydroimidazo[2,1-b]thiazole dihydrochloride] | ≥ 31
4 | CC1(C)CN=C(SCC2=CSC3=NC4(CCCCC4)CN23)N1 [Example 42, 3′-(((5,5-dimethyl-4,5-dihydro-1H-imidazol-2-yl)thio)methyl)-5′H-spiro[cyclohexane-1,6′-imidazo[2,1-b]thiazole] dihydrochloride] | 10 to 31
5 | CC1(C)CN=C(SCc2cccnc2)N1 [Example 32, 3-(((5,5-dimethyl-4,5-dihydro-1H-imidazol-2-yl)thio)methyl)pyridine dihydrochloride] | ≥ 31
6 | C1=C(CSC2=NCCCN2)N2CCCCN=C2S1 [Example 37, 3-(((1,4,5,6-tetrahydropyrimidin-2-yl)thio)methyl)-5,6,7,8-tetrahydrothiazolo[3,2-a][1,3]diazepine dihydrochloride] | ≥ 31
7 | CC1(C)CN2C(=N1)SCC2SC1=NCC(C)(C)N1 (centres unmarked) [Example 70, 3-((5,5-dimethyl-4,5-dihydro-1H-imidazol-2-yl)thio)-6,6-dimethyl-2,3,5,6-tetrahydroimidazo[2,1-b]thiazole dihydrochloride] | ≥ 31
8 | CCCCC1CN=C(SCC2=CSC3=NCCN23)N1 (centres unmarked) [Example 30, 3-(((5-butyl-4,5-dihydro-1H-imidazol-2-yl)thio)methyl)-5,6-dihydroimidazo[2,1-b]thiazole dihydrochloride] | ≤ 10
9 | CC1(C)CN=C(SCC2=CSC3=NC4CCCCC4CN23)N1 (centres unmarked) [Example 43, 3-(((5,5-dimethyl-4,5-dihydro-1H-imidazol-2-yl)thio)methyl)-5a,6,7,8,9,9a-hexahydro-5H-thiazolo[2,3-b]quinazoline dihydrochloride] | 10 to 31
10 | CC1(C)CN2C(CSC3=N[C@H]4CCCC[C@@H]4N3)=CSC2=N1 [Example 4, 3-((((3aS,7aS)-3a,4,5,6,7,7a-hexahydro-1H-benzo[d]imidazol-2-yl)thio)methyl)-6,6-dimethyl-5,6-dihydroimidazo[2,1-b]thiazole dihydrochloride] | ≤ 10
11 | CN1CCCN=C1SCC1=CSC2=NC(C)(C)CN12 [Example 57, 6,6-dimethyl-3-(((1-methyl-1,4,5,6-tetrahydropyrimidin-2-yl)thio)methyl)-5,6-dihydroimidazo[2,1-b]thiazole dihydrochloride] | ≥ 31
12 | C1=C(CSC2=NCCCN2)N2CCCN=C2S1 [Example 29, 3-(((1,4,5,6-tetrahydropyrimidin-2-yl)thio)methyl)-6,7-dihydro-5H-thiazolo[3,2-a]pyrimidine dihydrochloride] | ≥ 31
13 | C1=C(CSC2=N[C@@H]3CCCC[C@H]3N2)N2CCCCN=C2S1 [Example 46, 3-((((3aR,7aR)-3a,4,5,6,7,7a-hexahydro-1H-benzo[d]imidazol-2-yl)thio)methyl)-5,6,7,8-tetrahydrothiazolo[3,2-a][1,3]diazepine dihydrochloride] | ≥ 31
14 | C1=C(CSC2=NCCCN2)N2CCN=C2S1 [Example 35, 3-(((1,4,5,6-tetrahydropyrimidin-2-yl)thio)methyl)-5,6-dihydroimidazo[2,1-b]thiazole dihydrochloride] | ≥ 31
15 | CC1(C)CN2C(CSC3=N[C@H]4COC[C@H]4N3)=CSC2=N1 [Example 25, (3aR,6aS)-2-(((6,6-dimethyl-5,6-dihydroinidazo[2,1-b]thiazol-3-yl)methyl)thio)-3a,4,6,6a-tetrahydro-1H-furo[3,4-d]imidazole dihydrochloride] | ≥ 31
16 | CC1(C)CN2C(CSC3=NCC4CCCCC4N3)=CSC2=N1 (centres unmarked) [Example 40, 6,6-dimethyl-3-(((1,4,4a,5,6,7,8,8a-octahydroquinazolin-2-yl)thio)methyl)-5,6-dihydroimidazo[2,1-b]thiazole dihydrochloride] | ≥ 31
17 | CC(C)C1CN2C(CSC3=NCC(C)(C)N3)=CSC2=N1 (centres unmarked) [Example 52, 3-(((5,5-dimethyl-4,5-dihydro-1H-imidazol-2-yl)thio)methyl)-6-isopropyl-5,6-dihydroimidazo[2,1-b]thiazole dihydrochloride] | 10 to 31
18 | CC1(C)CN=C2SC=C(CSC3=NCC(C)(C)N3)N2C1 [Example 34, 3-(((5,5-dimethyl-4,5-dihydro-1H-imidazol-2-yl)thio)methyl)-6,6-dimethyl-6,7-dihydro-5H-thiazolo[3,2-a]pyrimidine dihydrochloride] | ≥ 31
19 | CC1(C)CN=C(SCC2=CSC3=NC(C)(C)CN23)NC1 [Example 28, 3-(((5,5-dimethyl-1,4,5,6-tetrahydropyrimidin-2-yl)thio)methyl)-6,6-dimethyl-5,6-dihydroimidazo[2,1-b]thiazole dihydrochloride] | ≥ 31
20 | CC1(C)CN2C(CSC3=N[C@@H]4CCC[C@@H](C4)N3)=CSC2=N1 [Example 22, 3-((((1R,5S)-2,4-diazabicyclo[3.3.1]non-2-en-3-yl)thio)methyl)-6,6-dimethyl-5,6-dihydroimidazo[2,1-b]thiazole dihydrochloride] | ≥ 31
21 | CN1CCN=C1SCC1=CSC2=NC(C)(C)CN12 [Example 11, 6,6-dimethyl-3-(((1-methyl-4,5-dihydro-1H-imidazol-2-yl)thio)methyl)-5,6-dihydroimidazo[2,1-b]thiazole dihydrochloride] | ≤ 10
22 | CC1(C)CN=C(SCC2=CSC3=NC4(CC4)CN23)N1 [Example 33, dihydrochloride] | ≥ 31
23 | CC1(C)CN=C(SCC2=CSC3=NC(C)(C)C(C)(C)N23)N1 [Example 20, 3-(((5,5-dimethyl-4,5-dihydro-1H-imidazol-2-yl)thio)methyl)-5,5,6,6-tetramethyl-5,6-dihydroimidazo[2,1-b]thiazole dihydrochloride] | 10 to 31
24 | c1ccc(CC2CN=C(SCCc3cccnc3)N2)cc1 (centres unmarked) [Example 65, 3-(2-((5-benzyl-4,5-dihydro-1H-imidazol-2-yl)thio)ethyl)pyridine dihydrochloride] | ≥ 31
25 | CCCCC1CN2C(CSC3=NCC(C)(C)N3)=CSC2=N1 (centres unmarked) [Example 19, 6-butyl-3-(((4,4-dimethyl-4,5-dihydro-1H-imidazol-2-yl)thio)methyl)-5,6-dihydroinidazo[2,1-b]thiazole dihydrochloride] | 10 to 31
26 | CC1(C)CN2C(CSC3=NCC4(CC4)N3)=CSC2=N1 [Example 24, 3-(((4,6-diazaspiro[2.4]hept-5-en-5-yl)thio)methyl)-6,6-dimethyl-5,6-dihydroimidazo[2,1-b]thiazole dihydrochloride] | 10 to 31
